Measurements published in paper PMC5218480 (PLoS ONE, 2017).

Test system: MV-4-11 cells
Assay: Gene expression microarray analysis (Affymetrix PrimeView) and GSEA
Type: cell-based, human
Parameters: RFU PODN (11730768_x_at) / Fold change /veh PODN (11730768_x_at) / RFU LINC00158 (11744669_a_at) / Fold change /veh LINC00158 (11744669_a_at) / RFU DUSP10 (11751237_a_at) / Fold change /veh DUSP10 (11751237_a_at) / RFU ID3 (11757404_x_at) / Fold change /veh ID3 (11757404_x_at) / RFU PLEKHG5 (11737974_s_at) / Fold change /veh PLEKHG5 (11737974_s_at) / RFU LRRC4B (11730491_at) / Fold change /veh LRRC4B (11730491_at) / RFU GIMAP4 (11747438_a_at) / Fold change /veh GIMAP4 (11747438_a_at) / RFU KRT8 (11758183_x_at) / Fold change /veh KRT8 (11758183_x_at) / RFU CNN1 (11734310_a_at) / Fold change /veh CNN1 (11734310_a_at) / RFU VPS37D (11726825_at) / Fold change /veh VPS37D (11726825_at) / RFU C10orf10 (11716522_x_at) / Fold change /veh C10orf10 (11716522_x_at) / RFU KIR2DL2 /// KIR2DL4 /// KIR2DL5A /// KIR2DL5B /// KIR2DS1 /// KIR2DS2 /// KIR2DS3 /// KIR2DS4 /// KIR3DL3 /// KIR3DL3 /// KIR3DS1 (11738374_at) / Fold change /veh KIR2DL2 /// KIR2DL4 /// KIR2DL5A /// KIR2DL5B /// KIR2DS1 /// KIR2DS2 /// KIR2DS3 /// KIR2DS4 /// KIR3DL3 /// KIR3DL3 /// KIR3DS1 (11738374_at) / RFU C1QL1 (11718748_at) / Fold change /veh C1QL1 (11718748_at) / RFU TMPRSS4 (11747572_a_at) / Fold change /veh TMPRSS4 (11747572_a_at) / RFU HAMP (11756126_x_at) / Fold change /veh HAMP (11756126_x_at) / RFU RNFT2 (11725882_a_at) / Fold change /veh RNFT2 (11725882_a_at) / RFU NR4A2 (11747474_a_at) / Fold change /veh NR4A2 (11747474_a_at) / RFU ABCC12 (11746883_a_at) / Fold change /veh ABCC12 (11746883_a_at) / RFU TMEM136 (11760407_x_at) / Fold change /veh TMEM136 (11760407_x_at) / RFU CLDN22 /// WWC2 (11732394_at) / Fold change /veh CLDN22 /// WWC2 (11732394_at) / RFU HLA-DPB1 (11760878_x_at) / Fold change /veh HLA-DPB1 (11760878_x_at) / RFU SPINT1 (11716480_a_at) / Fold change /veh SPINT1 (11716480_a_at) / RFU GAP43 (11754022_s_at) / Fold change /veh GAP43 (11754022_s_at) / RFU A4GNT (11735810_at) / Fold change /veh A4GNT (11735810_at) / RFU PRB3 (11715151_x_at) / Fold change /veh PRB3 (11715151_x_at) / RFU TUBB4B (11761932_at) / Fold change /veh TUBB4B (11761932_at) / RFU CAPN14 (11732068_a_at) / Fold change /veh CAPN14 (11732068_a_at) / RFU TMCC2 (11721928_a_at) / Fold change /veh TMCC2 (11721928_a_at) / RFU IRGQ (11745062_a_at) / Fold change /veh IRGQ (11745062_a_at) / RFU FAM174B (11720279_a_at) / Fold change /veh FAM174B (11720279_a_at) / RFU TMPRSS4 (11748680_a_at) / Fold change /veh TMPRSS4 (11748680_a_at) / RFU FAM212B (11763350_a_at) / Fold change /veh FAM212B (11763350_a_at) / RFU PLEKHG5 (11743358_a_at) / Fold change /veh PLEKHG5 (11743358_a_at) / RFU ZSCAN30 (11745921_a_at) / Fold change /veh ZSCAN30 (11745921_a_at) / RFU CMKLR1 (11741424_a_at) / Fold change /veh CMKLR1 (11741424_a_at) / RFU LOC101060620 /// MAPK8IP1 (11723275_at) / Fold change /veh LOC101060620 /// MAPK8IP1 (11723275_at) / RFU SPTSSB (11747773_x_at) / Fold change /veh SPTSSB (11747773_x_at) / RFU PRSS12 (11739890_at) / Fold change /veh PRSS12 (11739890_at) / RFU BIN1 (11741810_x_at) / Fold change /veh BIN1 (11741810_x_at) / RFU WNT11 (11732464_a_at) / Fold change /veh WNT11 (11732464_a_at) / RFU C10orf10 (11716521_a_at) / Fold change /veh C10orf10 (11716521_a_at) / RFU C5orf56 (11738089_at) / Fold change /veh C5orf56 (11738089_at) / RFU CYB561 (11721691_x_at) / Fold change /veh CYB561 (11721691_x_at) / RFU ANKRD19P (11752326_a_at) / Fold change /veh ANKRD19P (11752326_a_at) / RFU OR2T12 /// OR2T33 /// OR2T8 (11738714_s_at) / Fold change /veh OR2T12 /// OR2T33 /// OR2T8 (11738714_s_at) / RFU VCAN (11748164_a_at) / Fold change /veh VCAN (11748164_a_at) / RFU JSRP1 (11732532_at) / Fold change /veh JSRP1 (11732532_at) / RFU KRTAP10-11 (11738290_x_at) / Fold change /veh KRTAP10-11 (11738290_x_at) / RFU MYO3A (11730013_a_at) / Fold change /veh MYO3A (11730013_a_at) / RFU EBF3 (11725865_a_at) / Fold change /veh EBF3 (11725865_a_at) / RFU CAMK2N1 (11719241_x_at) / Fold change /veh CAMK2N1 (11719241_x_at) / RFU C5orf56 (11738088_a_at) / Fold change /veh C5orf56 (11738088_a_at) / RFU OLFML3 (11715873_a_at) / Fold change /veh OLFML3 (11715873_a_at) / RFU LOC100653217 /// NTM (11731650_a_at) / Fold change /veh LOC100653217 /// NTM (11731650_a_at) / RFU MAPK11 (11762145_a_at) / Fold change /veh MAPK11 (11762145_a_at) / RFU FIZ1 (11724087_x_at) / Fold change /veh FIZ1 (11724087_x_at) / RFU OASL (11726364_x_at) / Fold change /veh OASL (11726364_x_at) / RFU SOX15 (11748057_x_at) / Fold change /veh SOX15 (11748057_x_at) / RFU CD79A (11719716_a_at) / Fold change /veh CD79A (11719716_a_at) / RFU HIST1H1D (11736915_at) / Fold change /veh HIST1H1D (11736915_at) / RFU CASKIN2 (11723855_a_at) / Fold change /veh CASKIN2 (11723855_a_at) / RFU LOC730098 (11760151_x_at) / Fold change /veh LOC730098 (11760151_x_at) / RFU OR4N2 (11742367_at) / Fold change /veh OR4N2 (11742367_at) / RFU PRRT2 (11749266_a_at) / Fold change /veh PRRT2 (11749266_a_at) / RFU SNX32 (11753110_a_at) / Fold change /veh SNX32 (11753110_a_at) / RFU CDHR5 (11726645_a_at) / Fold change /veh CDHR5 (11726645_a_at) / RFU RCAN1 (11760418_a_at) / Fold change /veh RCAN1 (11760418_a_at) / RFU FAM167A (11723789_a_at) / Fold change /veh FAM167A (11723789_a_at) / RFU FAM26E (11764081_at) / Fold change /veh FAM26E (11764081_at) / RFU ISYNA1 (11749810_s_at) / Fold change /veh ISYNA1 (11749810_s_at) / RFU ACY1 (11761880_at) / Fold change /veh ACY1 (11761880_at) / RFU 11764098_at / Fold change /veh 11764098_at / RFU SAMD14 (11745864_x_at) / Fold change /veh SAMD14 (11745864_x_at) / RFU NPB (11741838_a_at) / Fold change /veh NPB (11741838_a_at) / RFU TMPRSS6 (11731388_a_at) / Fold change /veh TMPRSS6 (11731388_a_at) / RFU KRTAP10-2 (11738614_at) / Fold change /veh KRTAP10-2 (11738614_at) / RFU ARHGAP8 /// PRR5-ARHGAP8 (11727945_x_at) / Fold change /veh ARHGAP8 /// PRR5-ARHGAP8 (11727945_x_at) / RFU KRTAP5-7 /// NADSYN1 (11734609_at) / Fold change /veh KRTAP5-7 /// NADSYN1 (11734609_at) / RFU RASL12 (11751679_a_at) / Fold change /veh RASL12 (11751679_a_at) / RFU CDKN2B (11736163_a_at) / Fold change /veh CDKN2B (11736163_a_at) / RFU PRF1 (11729649_at) / Fold change /veh PRF1 (11729649_at) / RFU, ZNF638 /// ZNF638-IT1 / Fold change vs veh, ZNF638 /// ZNF638-IT1 / RFU, PANK3 / Fold change vs veh, PANK3 / RFU, SH3YL1 / Fold change vs veh, SH3YL1 / RFU, ZEB2 / Fold change vs veh, ZEB2 / RFU, NRIP1 / Fold change vs veh, NRIP1 / RFU, PTTG1IP / Fold change vs veh, PTTG1IP / RFU, CAPN2 / Fold change vs veh, CAPN2 / RFU, MED14 / Fold change vs veh, MED14 / RFU, SNORA58 / Fold change vs veh, SNORA58 / RFU, C1orf63 / Fold change vs veh, C1orf63 / RFU, LRRFIP1 / Fold change vs veh, LRRFIP1 / RFU, NDUFAF7 / Fold change vs veh, NDUFAF7 / RFU, SLC12A2 / Fold change vs veh, SLC12A2 / RFU, IBTK / Fold change vs veh, IBTK / RFU, ESF1 / Fold change vs veh, ESF1 / Fold change vs veh, TMEM50B / RFU, TAOK1 / Fold change vs veh, TAOK1 / RFU, ACBD3 / Fold change vs veh, ACBD3 / RFU, TMA16 / Fold change vs veh, TMA16 / RFU, RWDD3 / Fold change vs veh, RWDD3 / RFU, BCAT1 / Fold change vs veh, BCAT1 / RFU, EDEM3 / Fold change vs veh, EDEM3 / RFU, TMEM33 / Fold change vs veh, TMEM33 / RFU, WDR75 / Fold change vs veh, WDR75 / RFU, AHCTF1 / Fold change vs veh, AHCTF1 / RFU, TFRC / Fold change vs veh, TFRC / RFU, ZDHHC17 / Fold change vs veh, ZDHHC17 / RFU, NOM1 / Fold change vs veh, NOM1 / RFU, ARL8B / Fold change vs veh, ARL8B / RFU, ZBTB11 / Fold change vs veh, ZBTB11 / RFU, TAMM41 / Fold change vs veh, TAMM41 / RFU, KIAA1704 /// LOC100996395 / Fold change vs veh, KIAA1704 /// LOC100996395 / RFU, ING1 / Fold change vs veh, ING1 / RFU, TRMT61B / Fold change vs veh, TRMT61B / RFU, FUBP3 / Fold change vs veh, FUBP3 / RFU, TP53 / Fold change vs veh, TP53 / RFU, TNKS2 / Fold change vs veh, TNKS2 / RFU, ZFP14 / Fold change vs veh, ZFP14 / RFU, ACTR2 / Fold change vs veh, ACTR2 / RFU, PPP3R1 / Fold change vs veh, PPP3R1 / RFU, PIK3R1 / Fold change vs veh, PIK3R1 / RFU, HNRNPA1 / Fold change vs veh, HNRNPA1 / RFU, RNF170 / Fold change vs veh, RNF170 / RFU, ZNF28 / Fold change vs veh, ZNF28 / RFU, RNGTT / Fold change vs veh, RNGTT / RFU, OGT / Fold change vs veh, OGT / RFU, BRD1 / Fold change vs veh, BRD1 / RFU, MARS / Fold change vs veh, MARS / RFU, ZNF655 / Fold change vs veh, ZNF655 / RFU, FAHD1 / Fold change vs veh, FAHD1 / RFU, BDP1 / Fold change vs veh, BDP1 / RFU, LRRCC1 / Fold change vs veh, LRRCC1 / RFU, ARID1A / Fold change vs veh, ARID1A / RFU, ZNF146 / Fold change vs veh, ZNF146 / RFU, ZNF330 / Fold change vs veh, ZNF330 / RFU, GPN3 / Fold change vs veh, GPN3 / RFU, C9orf123 / Fold change vs veh, C9orf123 / RFU, N4BP2L2 / Fold change vs veh, N4BP2L2 / RFU, ARFIP1 / Fold change vs veh, ARFIP1 / RFU, FAM179B / Fold change vs veh, FAM179B / RFU, BCL10 / Fold change vs veh, BCL10 / RFU, UHRF1BP1L / Fold change vs veh, UHRF1BP1L / RFU, BET1 / Fold change vs veh, BET1 / RFU, CNOT2 / Fold change vs veh, CNOT2 / RFU, ZNF268 / Fold change vs veh, ZNF268 / Fold change vs veh, ZNF507 / RFU, DGCR2 / Fold change vs veh, DGCR2 / RFU, WDSUB1 / Fold change vs veh, WDSUB1 / Fold change vs veh, HSP90B1 /// MIR3652 / RFU, ADSS / Fold change vs veh, ADSS / RFU, GK / Fold change vs veh, GK / RFU, ZNF148 / Fold change vs veh, ZNF148 / RFU, TAF9 / Fold change vs veh, TAF9 / RFU, SLC1A5 / Fold change vs veh, SLC1A5 / RFU, SLMO2 / Fold change vs veh, SLMO2 / RFU, ABCC4 / Fold change vs veh, ABCC4 / RFU, LOC101060439 /// RAP1B / Fold change vs veh, LOC101060439 /// RAP1B / RFU, RFX7 / Fold change vs veh, RFX7 / RFU, GTPBP10 / Fold change vs veh, GTPBP10 / RFU, CNEP1R1 / Fold change vs veh, CNEP1R1 / RFU, BIVM-ERCC5 /// ERCC5 / Fold change vs veh, BIVM-ERCC5 /// ERCC5 / RFU, ILF3 / Fold change vs veh, ILF3 / RFU 11762660_at / Fold change /veh 11762660_at / RFU VCAN (11757783_s_at) / Fold change /veh VCAN (11757783_s_at) / RFU DDX43 (11728927_at) / Fold change /veh DDX43 (11728927_at) / RFU KRT8 (11758188_x_at) / Fold change /veh KRT8 (11758188_x_at) / RFU NKD1 (11759106_at) / Fold change /veh NKD1 (11759106_at) / RFU SRD5A1 (11742802_a_at) / Fold change /veh SRD5A1 (11742802_a_at) / RFU TPSAB1 /// TPSB2 (11721975_s_at) / Fold change /veh TPSAB1 /// TPSB2 (11721975_s_at) / RFU GSTM3 (11746129_a_at) / Fold change /veh GSTM3 (11746129_a_at) / RFU IL23R (11737362_x_at) / Fold change /veh IL23R (11737362_x_at) / RFU TMEM51 (11727254_a_at) / Fold change /veh TMEM51 (11727254_a_at) / RFU PIWIL2 (11732686_x_at) / Fold change /veh PIWIL2 (11732686_x_at) / RFU ORM1 (11744905_x_at) / Fold change /veh ORM1 (11744905_x_at) / RFU CCDC152 (11743942_at) / Fold change /veh CCDC152 (11743942_at) / RFU ECM1 (11717891_a_at) / Fold change /veh ECM1 (11717891_a_at) / RFU IL23R (11748794_a_at) / Fold change /veh IL23R (11748794_a_at) / RFU TNFAIP8L3 (11732012_x_at) / Fold change /veh TNFAIP8L3 (11732012_x_at) / RFU MBOAT4 (11741988_at) / Fold change /veh MBOAT4 (11741988_at) / RFU 11764193_at / Fold change /veh 11764193_at / RFU TMEM53 (11763286_at) / Fold change /veh TMEM53 (11763286_at) / RFU MAGEB2 (11727129_at) / Fold change /veh MAGEB2 (11727129_at) / RFU TMEM200A (11744735_a_at) / Fold change /veh TMEM200A (11744735_a_at) / RFU CCDC152 (11751479_a_at) / Fold change /veh CCDC152 (11751479_a_at) / RFU FAM211A (11726209_a_at) / Fold change /veh FAM211A (11726209_a_at) / RFU RGS16 (11746705_a_at) / Fold change /veh RGS16 (11746705_a_at) / RFU VCAN (11755009_s_at) / Fold change /veh VCAN (11755009_s_at) / RFU RHOB (11743442_s_at) / Fold change /veh RHOB (11743442_s_at) / RFU RGS16 (11720943_a_at) / Fold change /veh RGS16 (11720943_a_at) / RFU RGS16 (11720944_at) / Fold change /veh RGS16 (11720944_at) / RFU, VPS4B / Fold change vs veh, VPS4B / RFU, CREB1 / Fold change vs veh, CREB1 / RFU, DNAJC13 / Fold change vs veh, DNAJC13 / RFU, GNAQ / Fold change vs veh, GNAQ / RFU, CDK5R1 / Fold change vs veh, CDK5R1 / RFU, ZRANB3 / Fold change vs veh, ZRANB3 / RFU, CUL4A / Fold change vs veh, CUL4A / RFU, CCNY / Fold change vs veh, CCNY / RFU, UFL1 / Fold change vs veh, UFL1 / RFU, COG3 / Fold change vs veh, COG3 / RFU, DIAPH2 / Fold change vs veh, DIAPH2 / RFU, SKA2 / Fold change vs veh, SKA2 / RFU, AFF3 / Fold change vs veh, AFF3 / RFU, LMF1 / Fold change vs veh, LMF1 / RFU, IPO11 / Fold change vs veh, IPO11 / RFU, DFFB / Fold change vs veh, DFFB / RFU, FOXP1 / Fold change vs veh, FOXP1 / RFU, CARD8 / Fold change vs veh, CARD8 / RFU, STRN3 / Fold change vs veh, STRN3 / RFU, ADK / Fold change vs veh, ADK / RFU, RASSF2 / Fold change vs veh, RASSF2 / RFU, WIPF1 / Fold change vs veh, WIPF1 / RFU, LARP1B / Fold change vs veh, LARP1B / RFU, RASA1 / Fold change vs veh, RASA1 / RFU, RB1 / Fold change vs veh, RB1 / RFU, PPFIA1 / Fold change vs veh, PPFIA1 / RFU, MAT2A / Fold change vs veh, MAT2A / RFU, CCT5 / Fold change vs veh, CCT5 / RFU, WDR92 / Fold change vs veh, WDR92 / RFU, CUX1 / Fold change vs veh, CUX1 / RFU, TTC7A / Fold change vs veh, TTC7A / RFU, TMEM135 / Fold change vs veh, TMEM135 / RFU, DEPTOR / Fold change vs veh, DEPTOR / RFU, CPM / Fold change vs veh, CPM / RFU, DNAJB6 / Fold change vs veh, DNAJB6 / RFU, CACNA2D3 / Fold change vs veh, CACNA2D3 / RFU, DTX4 / Fold change vs veh, DTX4 / RFU, TFCP2 / Fold change vs veh, TFCP2 / RFU, GMCL1 /// GMCL1P1 / Fold change vs veh, GMCL1 /// GMCL1P1 / RFU, AEBP2 / Fold change vs veh, AEBP2 / RFU, SNHG1 /// SNORD22 /// SNORD25 /// SNORD26 /// SNORD27 /// SNORD28 /// SNORD29 /// SNORD31 / Fold change vs veh, SNHG1 /// SNORD22 /// SNORD25 /// SNORD26 /// SNORD27 /// SNORD28 /// SNORD29 /// SNORD31 / Fold change (Aza/veh), C12orf56 (ProbeSet 11735607_a_at) / Fold change (ACY-1035/veh), C12orf56 (ProbeSet 11735607_a_at) / Fold change (Aza/veh), FGFR1OP (ProbeSet 11751329_s_at) / Fold change (ACY-1035/veh), FGFR1OP (ProbeSet 11751329_s_at) / Fold change (Aza/veh), VPS36 (ProbeSet 11739960_a_at) / Fold change (ACY-1035/veh), VPS36 (ProbeSet 11739960_a_at) / RFU SYPL1 (11715823_x_at) / Fold change /veh SYPL1 (11715823_x_at) / RFU IGFBP7 (11715501_s_at) / Fold change /veh IGFBP7 (11715501_s_at) / RFU REEP3 (11722064_at) / Fold change /veh REEP3 (11722064_at) / RFU IGLL1 (11728026_x_at) / Fold change /veh IGLL1 (11728026_x_at): dose or concentration left out as unconfirmed
Conditions: MV-4-11 cells, 48 hours

Compound: Nc1ccc(-c2cccs2)cc1NC(=O)c1ccc2c(c1)cc(C1CC1)n2CCN1CCOCC1 [ACY-1035]
- RFU IL23R (11737362_x_at): 7.94 RFU
